Read-outs that look alike come from different tables or passages of the source.
Key:
Spodoptera frugiperda = Spodoptera frugiperda spray test; assay type: in vivo; settings: after 7 days, maize leaf discs
Description: Spodoptera frugiperda—Spray Test
Solvent: 78.0 parts by weight of acetone • • 1.5 parts by weight of dimethylformamide
Emulsifier: alkylaryl polyglycol ether
To produce a suitable active ingredient formulation, 1 part by weight of active ingredient is dissolved with the specified parts by weight of solvent and made up with water containing an emulsifier concentration of 1000 ppm until the desired concentration is attained. To produce further test concentrations, the formulation is diluted with emulsifier-containing water.
Leaf discs of maize (Zea mays) are sprayed with an active ingredient formulation of the desired concentration and, after drying, populated with caterpillars of the armyworm (Spodoptera frugiperda).
After 7 days, the efficacy in % is determined. 100% means that all the caterpillars have been killed; 0% means that no caterpillar has been killed.

[1] = log P by HPLC on reversed-phase column (C 18), EEC Directive 79/831 Annex V.A8; assay type: physicochemical; settings: 55° C.; for LOGP_HCOOH: log P (HCOOH); for chromatographic logP: reversed-phase HPLC column (C 18)
Description: Temperature: 55° C. […] Called log P (HCOOH) in the table. […] Called log P (neutral) in the table.

[2] = acidic range at pH 2.7, 0.1% aqueous formic acid and acetonitrile, HPLC on reversed-phase column (C 18)
[3] = log P, neutral range, HPLC on reversed-phase column (C 18)
[4] = acidic range pH 2.7, 0.1% aqueous formic acid and acetonitrile, reversed-phase column (C 18)
[5] = pH 2.7, LC-MS acidic range, pH 2.7, 0.1% formic acid/acetonitrile, read-out: log P (acidic) / log P (HCOOH)
[6] = pH 7.8, LC-MS neutral range, pH 7.8, ammonium hydrogencarbonate/acetonitrile, read-out: log P (neutral)

LOGP_NEUTRAL [1, 3] | chromatographic logP [1, 5] | chromatographic logP [1, 6] | Structure (SMILES) | other results
3.83 |  |  | N#Cc1ccc(CNC(=O)c2cc(-c3ccc(OC(F)(F)F)c(F)c3)cc(NC(=O)C3CC3)n2)cc1 [Example I-121] | efficacy (caterpillars killed) (Spodoptera frugiperda; application rate 100 g/ha): 83%; efficacy (caterpillars killed) (Spodoptera frugiperda; application rate 500 g/ha): 100%; LOGP_HCOOH [1, 2]: 3.94
3.00 |  |  | O=C(NC1CCS(=O)(=O)C1)c1cc(-c2ccc(OC(F)(F)F)cc2)cc(NC(=O)C2CC2)n1 (centres unmarked) [Example I-187] | efficacy (caterpillars killed) (Spodoptera frugiperda; application rate 500 g/ha): 83%; LOGP_HCOOH [1, 2]: 3.09
4.02 |  |  | CC(NC(=O)c1cc(-c2ccc(OC(F)(F)F)cc2)cc(NC(=O)C2CC2)n1)c1ccc(C#N)cc1 (single isomer, unassigned) [Example I-219] | efficacy (caterpillars killed) (Spodoptera frugiperda; application rate 500 g/ha): 83%; LOGP_HCOOH [1, 2]: 4.17
3.21 |  |  | N#Cc1ccc(CNC(=O)c2cc(-c3ccc(OC(F)F)cc3)cc(NC(=O)C3CC3)n2)cc1 [Example I-029] | efficacy (caterpillars killed) (Spodoptera frugiperda; application rate 500 g/ha): 83%; LOGP_HCOOH [1, 4]: 3.28
4.24 |  |  | CC1(NC(=O)c2cc(-c3ccc(OC(F)(F)F)cc3)cc(NC(=O)C3CC3)n2)CSC1 [Example I-163] | efficacy (caterpillars killed) (Spodoptera frugiperda; application rate 500 g/ha): 100%; LOGP_HCOOH [1, 2]: 4.32
 | 3.18 | 3.17 | NC(=O)c1cc(-c2ccc(C(F)(F)C(F)(F)F)c(F)c2)cc(NC(=O)C2CC2)n1 [XXIII-1, 6-[(Cyclopropylcarbonyl)amino]-4-[3-fluoro-4-(pentafluoroethyl)phenyl]pyridine-2-carboxamide] | 
 | 3.63 | 3.63 | CNc1cc(-c2ccc(OC(F)(F)F)cc2)cc(C(=O)NCc2ccc(C#N)cc2)n1 [XVIII-1, N-(4-Cyanobenzyl)-6-(methylamino)-4-[4-(trifluoromethoxy)phenyl]pyridine-2-carboxamide] | 
4.72 | 4.85 | 4.72 | CCc1cc(C(F)(F)C(F)(F)F)cc(C)c1-c1cc(NC(=O)C2CC2)nc(C(=O)NCc2ccc(C#N)cc2)c1 [Example I-148, N-(4-Cyanobenzyl)-6-[(cyclopropylcarbonyl)amino]-4-[2-ethyl-6-methyl-4-(pentafluoroethyl)phenyl]pyridine-2-carboxamide] | pest or weed control at 500 g/ha (Spodoptera frugiperda; Spodoptera frugiperda, foliar, 168 h, application rate 500 g/ha, read-out: efficacy (caterpillars killed)): 100%; LOGP_HCOOH [1, 2]: 4.85
4.51 |  |  | N#Cc1ccc(CNC(=O)c2cc(-c3ccc(OC(F)(F)F)cc3)cc(NC(=O)C3CCCC3)n2)cc1 [Example I-207] | efficacy (caterpillars killed) (Spodoptera frugiperda; application rate 500 g/ha): 100%
3.95 |  |  | N#Cc1ccc(CNC(=O)c2cc(-c3ccc(C4(C(F)(F)F)CC4)cc3)cc(NC(=O)C3CC3)n2)cc1 [Example I-193] | efficacy (caterpillars killed) (Spodoptera frugiperda; application rate 500 g/ha): 100%; LOGP_HCOOH [1, 2]: 4.12
 |  |  | N#CC1(NC(=O)c2cc(-c3ccc(OC(F)(F)F)cc3)cc(NC(=O)C3CC3)n2)CCOCC1 [Example I-134] | efficacy (caterpillars killed) (Spodoptera frugiperda; application rate 100 g/ha): 83%; efficacy (caterpillars killed) (Spodoptera frugiperda; application rate 500 g/ha): 100%; LOGP_HCOOH [1, 2]: 3.58
5.07 |  |  | O=C(NCc1cc(F)c(Cl)cc1Cl)c1cc(-c2ccc(OC(F)(F)F)cc2)cc(NC(=O)C2CC2)n1 [Example I-063] | efficacy (caterpillars killed) (Spodoptera frugiperda; application rate 500 g/ha): 100%; LOGP_HCOOH [1, 4]: 5.20
 | 4.77 | 4.72 | C=Cc1cc(-c2ccc(OC(F)(F)F)cc2)cc(Cl)n1 [XV-1, 2-Chloro-4-[4-(trifluoromethoxy)phenyl]-6-vinylpyridine] | 
 | 2.72 | 1.25 | O=C(O)c1cc(-c2ccc(OC(F)(F)F)cc2)cc(NC(=O)C2CC2)n1 [6-[(Cyclopropylcarbonyl)amino]-4-[4-(trifluoromethoxy)phenyl]pyridine-2-carboxylic acid] | 
 | 4.63 | 4.62 | FC(F)(F)Oc1ccc(-c2cc(Cl)nc(Cl)c2)cc1 [XIV-1, 2,6-Dichloro-4-[4-(trifluoromethoxy)phenyl]pyridine] | 
 |  |  | N#Cc1ccc(CNC(=O)c2cc(-c3cc(F)c(C(F)(F)C(F)(F)F)cc3F)cc(NC(=O)C3CC3)n2)cc1 [Example I-275] | LOGP_HCOOH [1, 4]: 4.11
 |  | 2.4 | CN(C(=O)c1cc(-c2ccc(C(F)(F)F)cc2)cc(N)n1)C1CC1 [XX-2, 6-Amino-N-cyclopropyl-N-methyl-4-[4-(trifluoromethyl)phenyl]pyridine-2-carboxamide] | 
 |  | 2.82 | N#Cc1ccc(CNC(=O)c2cc(-c3ccc(Cl)cc3)cc(N)n2)cc1 [XX-1, 6-Amino-4-(4-chlorophenyl)-N-(4-cyanobenzyl)pyridine-2-carboxamide] | 
 | 3.63 | 3.54 | COC(=O)c1cc(-c2ccc(OC(F)(F)F)cc2)cc(NC(=O)C2CC2)n1 [XXIII-2, Methyl 6-[(cyclopropylcarbonyl)amino]-4-[4-(trifluoromethoxy)phenyl]pyridine-2-carboxylate] | 
4.57 |  |  | O=C(NC1CCCCC1)c1cc(-c2ccc(OC(F)(F)F)cc2)cc(NC(=O)C2CC2)n1 [Example I-168] | LOGP_HCOOH [1, 2]: 4.74

LOGP_NEUTRAL [1, 3] | chromatographic logP [1, 5] | chromatographic logP [1, 6] | Structure (SMILES) | other results
 |  | 3.19 | N#Cc1ccc(CNC(=O)c2cc(-c3ccc(C(F)(F)F)cc3)cc(N)n2)cc1F [XX-3, 6-Amino-N-(4-cyano-3-fluorobenzyl)-4-[4-(trifluoromethyl)phenyl]pyridine-2-carboxamide] | 
 |  |  | N#Cc1cccc(CNC(=O)c2cc(-c3ccc(F)cc3)cc(NC(=O)C3CC3)n2)c1 [Example I-001] | LOGP_HCOOH [1, 4]: 3.26
 | 3.85 | 3.83 | Nc1cc(-c2ccc(C(F)(F)C(F)(F)F)c(F)c2)cc(Cl)n1 [XXI-1, 6-Chloro-4-[3-fluoro-4-(pentafluoroethyl)phenyl]pyridin-2-amine] | 
 |  |  | N#Cc1ccc(CNC(=O)c2cc(-c3cc(F)c(C(F)(F)C(F)(F)F)c(Cl)c3)cc(NC(=O)C3CC3)n2)cc1 [Example I-278] | LOGP_HCOOH [1, 4]: 4.67; LOGP_NEUTRAL ([1]; log P (neutral), HPLC reversed-phase column (C 18)): 4.52
 | 1.02 |  | Nc1cc(-c2ccc(Cl)cc2)cc(C(=O)O)n1 [XIX-1, 6-Amino-4-(4-chlorophenyl)pyridine-2-carboxylic acid] | 
 |  |  | N#CC1CCN(C(=O)c2cc(-c3ccc(OC(F)(F)F)cc3)cc(NC(=O)C3CC3)n2)CC1 [Example I-199] | LOGP_HCOOH [1, 2]: 3.21
3.32 |  |  | N#Cc1ccc(CNC(=O)c2cc(-c3ccc(OC(F)(F)F)cc3)cc(NC(=O)C3(C4CC4)CC3)n2)cc1 [Example I-203] | 
 | 3.85 | 3.89 | N#Cc1cc(-c2ccc(OC(F)(F)F)cc2)cc(NC(=O)C2CC2)n1 [XXIX-1, N-{6-Cyano-4-[4-(trifluoromethoxy)phenyl]pyridin-2-yl}cyclopropanecarboxamide] | 
3.18 |  |  | CON(C)C(=O)c1cc(-c2ccc(OC(F)(F)F)cc2)cc(NC(=O)C2CC2)n1 [Example I-183] | LOGP_HCOOH [1, 2]: 3.22
 | 1.58 | 1.25 | N#Cc1ccc(CNC(=O)c2cc(B(O)O)cc(NC(=O)C3CC3)n2)cc1 [Example X-1b, {2-[(4-Cyanobenzyl)carbamoyl]-6-[(cyclopropylcarbonyl)amino]pyridin-4-yl}boric acid] | 
 | 2.57 | 2.55 | NNC(=O)c1cc(-c2ccc(OC(F)(F)F)cc2)cc(NC(=O)C2CC2)n1 [XXIV-1, N-{6-(Hydrazinocarbonyl)-4-[4-(trifluoromethoxy)phenyl]pyridin-2-yl}cyclopropanecarboxamide] | 
 | 3 | 1.17 | O=C(O)c1cc(-c2ccc(OC(F)(F)F)cc2)cc(Cl)n1 [XVI-1, 6-Chloro-4-[4-(trifluoromethoxy)phenyl]pyridine-2-carboxylic acid] | 
3.82 |  |  | N#Cc1ccc(CNC(=O)c2cc(-c3ccc(OC(F)=C(F)F)cc3)cc(NC(=O)C3CC3)n2)cc1 [Example I-171] | LOGP_HCOOH [1, 2]: 3.96
 |  |  | N#Cc1ccc(CNC(=O)c2cc(-c3ccc(C(F)(F)C(F)(F)F)c(F)c3Cl)cc(NC(=O)C3CC3)n2)cc1 [Example I-266] | LOGP_HCOOH [1, 4]: 4.34
 | 4.23 | 4.19 | N#Cc1ccc(CNC(=O)c2cc(-c3ccc(OC(F)(F)F)cc3)cc(Cl)n2)cc1 [XVII-1, 6-Chloro-N-(4-cyanobenzyl)-4-[4-(trifluoromethoxy)phenyl]pyridine-2-carboxamide] | 
 |  |  | Cc1cc(-c2cc(NC(=O)C3CC3)nc(C(=O)NCc3ccc(C#N)cc3)c2)cc(F)c1C(F)(F)C(F)(F)F [Example I-267] | LOGP_HCOOH [1, 4]: 4.45
4.04 |  |  | CC(C)C(=O)Nc1cc(-c2ccc(C(F)(F)F)cc2)cc(C(=O)NCc2cc(F)c(C#N)c(F)c2)n1 [Example I-072] | LOGP_HCOOH [1, 4]: 4.23
 | 4.76 | 4.64 | O=C(Nc1cc(-c2ccc(C(F)(F)C(F)(F)F)c(F)c2)cc(Cl)n1)C1CC1 [XXII-1, N-{6-Chloro-4-[3-fluoro-4-(pentafluoroethyl)phenyl]pyridin-2-yl}cyclopropanecarboxamide] | 
 | 4.92 | 4.97 | Fc1cc(-c2cc(Cl)nc(Cl)c2)ccc1C(F)(F)C(F)(F)F [XIV-2, 2,6-Dichloro-4-[3-fluoro-4-(pentafluoroethyl)phenyl]pyridine] | 
